How the values were obtained:
Experiment in all cases: radiometric filter-binding kinase assay
[1] = molecular target: MAP3K1 (human) (UniProt Q13233)
[2] = tested on: LCK (mouse); settings: accession and sequence are those of the human protein
[3] = molecular target: IGF1R (human) (UniProt P08069)
[4] = molecular target: PAK7 (human) (UniProt Q9P286)
[5] = molecular target: HIPK1 (human) (UniProt Q86Z02)
[6] = molecular target: MAPK11 (human) (UniProt Q15759)
[7] = molecular target: MAP3K7 TAB1 (human) (UniProt Q15750+O43318)
[8] = tested on: PRKAA1 or PRKAA2 (rat); settings: accession and sequence are those of the human protein
[9] = molecular target: INSR (human) (UniProt P06213)
[10] = molecular target: MAP3K9 (human) (UniProt P80192)
[11] = tested on: ROCK2 (rat); settings: accession and sequence are those of the human protein
[12] = molecular target: DAPK1 (human) (UniProt P53355)
[13] = molecular target: EPHA4 (human) (UniProt P54764)
[14] = molecular target: PKN2 (human) (UniProt Q16513)
PKN2 (human), sequence (Q16513 whole entry, looked up): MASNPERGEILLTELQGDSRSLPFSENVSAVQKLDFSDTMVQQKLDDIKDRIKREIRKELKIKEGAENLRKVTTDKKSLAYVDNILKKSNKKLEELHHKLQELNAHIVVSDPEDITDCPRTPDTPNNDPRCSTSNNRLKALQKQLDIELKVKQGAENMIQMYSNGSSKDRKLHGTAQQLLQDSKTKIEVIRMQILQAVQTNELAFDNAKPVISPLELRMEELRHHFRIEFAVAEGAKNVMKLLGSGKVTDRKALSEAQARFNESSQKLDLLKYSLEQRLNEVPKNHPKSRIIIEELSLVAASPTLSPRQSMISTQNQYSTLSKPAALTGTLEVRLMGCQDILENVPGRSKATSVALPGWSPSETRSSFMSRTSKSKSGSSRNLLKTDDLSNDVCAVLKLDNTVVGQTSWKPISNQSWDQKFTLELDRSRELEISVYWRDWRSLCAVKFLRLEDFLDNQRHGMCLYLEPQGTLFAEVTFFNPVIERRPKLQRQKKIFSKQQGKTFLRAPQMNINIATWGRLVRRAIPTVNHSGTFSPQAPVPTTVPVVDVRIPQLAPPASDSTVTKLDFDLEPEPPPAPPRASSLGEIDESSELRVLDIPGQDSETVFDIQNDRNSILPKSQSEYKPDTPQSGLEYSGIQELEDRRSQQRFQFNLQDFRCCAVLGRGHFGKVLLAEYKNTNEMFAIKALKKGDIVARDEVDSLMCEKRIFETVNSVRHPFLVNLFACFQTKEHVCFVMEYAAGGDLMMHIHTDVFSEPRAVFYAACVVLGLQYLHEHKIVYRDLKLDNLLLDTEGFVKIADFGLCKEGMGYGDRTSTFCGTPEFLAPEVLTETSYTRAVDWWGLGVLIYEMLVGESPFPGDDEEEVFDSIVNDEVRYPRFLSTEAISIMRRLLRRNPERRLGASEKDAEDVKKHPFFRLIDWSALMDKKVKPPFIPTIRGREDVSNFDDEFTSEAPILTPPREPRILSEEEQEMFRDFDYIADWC

[15] = molecular target: MARK4 (human) (UniProt Q96L34)
[16] = tested on: AKT2 (human), P31751 [S474D]
[17] = molecular target: CSK (human) (UniProt P41240)
[18] = molecular target: EPHB4 (human) (UniProt P54760)
[19] = molecular target: CAMKK2 (human) (UniProt Q96RR4)
CAMKK2 (human), sequence (Q96RR4 whole entry, looked up): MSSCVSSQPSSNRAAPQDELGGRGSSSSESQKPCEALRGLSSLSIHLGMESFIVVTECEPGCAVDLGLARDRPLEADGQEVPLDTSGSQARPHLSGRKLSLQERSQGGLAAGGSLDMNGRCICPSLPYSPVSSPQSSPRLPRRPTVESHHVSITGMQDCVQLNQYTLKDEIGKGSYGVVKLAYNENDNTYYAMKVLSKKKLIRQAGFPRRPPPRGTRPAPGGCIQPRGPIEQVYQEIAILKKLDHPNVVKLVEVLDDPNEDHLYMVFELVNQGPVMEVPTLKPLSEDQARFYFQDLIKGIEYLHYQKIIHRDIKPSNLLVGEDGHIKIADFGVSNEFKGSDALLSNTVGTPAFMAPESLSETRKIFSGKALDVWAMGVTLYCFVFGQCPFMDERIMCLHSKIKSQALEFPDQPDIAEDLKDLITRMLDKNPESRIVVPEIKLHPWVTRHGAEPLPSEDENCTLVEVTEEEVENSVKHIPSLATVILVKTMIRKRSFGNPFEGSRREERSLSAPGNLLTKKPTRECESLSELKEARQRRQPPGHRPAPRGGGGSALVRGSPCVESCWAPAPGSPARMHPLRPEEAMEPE

[20] = molecular target: MAPK1 (human) (UniProt P28482)
[21] = molecular target: HIPK3 (human) (UniProt Q9H422)
[22] = molecular target: PAK6 (human) (UniProt Q9NQU5)
[23] = molecular target: PRKCZ (human) (UniProt Q05513)
[24] = molecular target: CLK2 (human) (UniProt P49760)
[25] = molecular target: SYK (human) (UniProt P43405)
[26] = molecular target: EPHB1 (human) (UniProt P54762)
[27] = molecular target: MAPK13 (human) (UniProt O15264)
MAPK13 (human), sequence (O15264 whole entry, looked up): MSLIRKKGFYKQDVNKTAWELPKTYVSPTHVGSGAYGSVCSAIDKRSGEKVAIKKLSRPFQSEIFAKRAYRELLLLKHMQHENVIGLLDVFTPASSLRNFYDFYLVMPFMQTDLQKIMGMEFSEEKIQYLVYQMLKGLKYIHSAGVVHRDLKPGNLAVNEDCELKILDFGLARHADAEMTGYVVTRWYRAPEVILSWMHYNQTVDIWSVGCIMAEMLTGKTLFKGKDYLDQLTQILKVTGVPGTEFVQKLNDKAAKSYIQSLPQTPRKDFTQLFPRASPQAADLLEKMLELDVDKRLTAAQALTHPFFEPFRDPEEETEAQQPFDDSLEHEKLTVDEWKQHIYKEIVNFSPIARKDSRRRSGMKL

[28] = molecular target: SRC (human) (UniProt P12931)
SRC (human), sequence (P12931 whole entry, looked up): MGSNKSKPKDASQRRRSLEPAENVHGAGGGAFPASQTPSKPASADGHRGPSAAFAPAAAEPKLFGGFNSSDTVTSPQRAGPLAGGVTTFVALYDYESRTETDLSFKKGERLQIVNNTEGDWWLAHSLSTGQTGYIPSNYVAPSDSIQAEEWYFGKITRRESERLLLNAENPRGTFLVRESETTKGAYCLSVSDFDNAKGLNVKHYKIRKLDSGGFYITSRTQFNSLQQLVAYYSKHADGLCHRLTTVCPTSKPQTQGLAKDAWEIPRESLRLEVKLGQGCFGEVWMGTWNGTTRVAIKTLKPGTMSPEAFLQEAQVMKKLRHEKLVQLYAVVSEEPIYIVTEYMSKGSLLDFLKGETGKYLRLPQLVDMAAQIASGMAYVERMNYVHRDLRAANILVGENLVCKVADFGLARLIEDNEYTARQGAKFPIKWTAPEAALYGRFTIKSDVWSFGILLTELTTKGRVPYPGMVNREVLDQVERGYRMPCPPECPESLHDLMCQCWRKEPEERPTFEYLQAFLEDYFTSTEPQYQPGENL

[29] = molecular target: YES1 (human) (UniProt P07947)
[30] = molecular target: MAP3K5 (human) (UniProt Q99683)
[31] = molecular target: PLK1 (human) (UniProt P53350)
[32] = molecular target: EPHB3 (human) (UniProt P54753)
[33] = molecular target: BRSK2 (human) (UniProt Q8IWQ3)
[34] = molecular target: RPS6KA5 KD1 KD2 (human) (UniProt O75582)
[35] = molecular target: HIPK2 (human) (UniProt Q9H2X6)
HIPK2 (human), sequence (Q9H2X6 whole entry, looked up): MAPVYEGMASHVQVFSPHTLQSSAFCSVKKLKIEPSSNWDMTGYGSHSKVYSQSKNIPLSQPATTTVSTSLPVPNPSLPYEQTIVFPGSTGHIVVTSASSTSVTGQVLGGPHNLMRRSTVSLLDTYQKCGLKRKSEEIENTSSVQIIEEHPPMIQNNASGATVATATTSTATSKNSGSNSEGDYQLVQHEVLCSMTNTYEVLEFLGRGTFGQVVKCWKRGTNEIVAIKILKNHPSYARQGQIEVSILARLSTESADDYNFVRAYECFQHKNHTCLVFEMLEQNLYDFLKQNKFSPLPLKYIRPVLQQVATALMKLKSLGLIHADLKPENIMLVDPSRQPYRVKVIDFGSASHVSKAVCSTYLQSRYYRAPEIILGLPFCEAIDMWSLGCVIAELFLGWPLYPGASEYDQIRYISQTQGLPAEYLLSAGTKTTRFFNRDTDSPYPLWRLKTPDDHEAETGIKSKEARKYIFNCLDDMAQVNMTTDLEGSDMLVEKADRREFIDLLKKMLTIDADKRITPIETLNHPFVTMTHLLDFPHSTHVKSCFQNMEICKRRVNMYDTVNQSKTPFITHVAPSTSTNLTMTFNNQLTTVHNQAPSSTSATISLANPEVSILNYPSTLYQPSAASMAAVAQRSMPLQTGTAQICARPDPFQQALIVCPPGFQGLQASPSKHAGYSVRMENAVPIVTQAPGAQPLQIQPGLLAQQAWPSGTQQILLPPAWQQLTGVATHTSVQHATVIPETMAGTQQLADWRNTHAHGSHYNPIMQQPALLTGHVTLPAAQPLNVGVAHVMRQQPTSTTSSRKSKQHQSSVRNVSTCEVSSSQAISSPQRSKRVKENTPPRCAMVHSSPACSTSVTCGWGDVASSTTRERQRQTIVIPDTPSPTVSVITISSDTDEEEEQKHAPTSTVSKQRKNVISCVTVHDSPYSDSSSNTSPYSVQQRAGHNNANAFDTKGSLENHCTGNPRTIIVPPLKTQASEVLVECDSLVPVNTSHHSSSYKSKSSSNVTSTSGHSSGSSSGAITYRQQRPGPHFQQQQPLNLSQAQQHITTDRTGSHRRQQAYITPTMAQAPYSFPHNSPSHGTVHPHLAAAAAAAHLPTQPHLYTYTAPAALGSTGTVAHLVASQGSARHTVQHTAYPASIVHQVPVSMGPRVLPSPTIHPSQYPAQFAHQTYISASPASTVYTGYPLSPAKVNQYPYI

[36] = molecular target: GSK3B (human) (UniProt P49841)

IGF1R (human), sequence (P08069 whole entry, looked up): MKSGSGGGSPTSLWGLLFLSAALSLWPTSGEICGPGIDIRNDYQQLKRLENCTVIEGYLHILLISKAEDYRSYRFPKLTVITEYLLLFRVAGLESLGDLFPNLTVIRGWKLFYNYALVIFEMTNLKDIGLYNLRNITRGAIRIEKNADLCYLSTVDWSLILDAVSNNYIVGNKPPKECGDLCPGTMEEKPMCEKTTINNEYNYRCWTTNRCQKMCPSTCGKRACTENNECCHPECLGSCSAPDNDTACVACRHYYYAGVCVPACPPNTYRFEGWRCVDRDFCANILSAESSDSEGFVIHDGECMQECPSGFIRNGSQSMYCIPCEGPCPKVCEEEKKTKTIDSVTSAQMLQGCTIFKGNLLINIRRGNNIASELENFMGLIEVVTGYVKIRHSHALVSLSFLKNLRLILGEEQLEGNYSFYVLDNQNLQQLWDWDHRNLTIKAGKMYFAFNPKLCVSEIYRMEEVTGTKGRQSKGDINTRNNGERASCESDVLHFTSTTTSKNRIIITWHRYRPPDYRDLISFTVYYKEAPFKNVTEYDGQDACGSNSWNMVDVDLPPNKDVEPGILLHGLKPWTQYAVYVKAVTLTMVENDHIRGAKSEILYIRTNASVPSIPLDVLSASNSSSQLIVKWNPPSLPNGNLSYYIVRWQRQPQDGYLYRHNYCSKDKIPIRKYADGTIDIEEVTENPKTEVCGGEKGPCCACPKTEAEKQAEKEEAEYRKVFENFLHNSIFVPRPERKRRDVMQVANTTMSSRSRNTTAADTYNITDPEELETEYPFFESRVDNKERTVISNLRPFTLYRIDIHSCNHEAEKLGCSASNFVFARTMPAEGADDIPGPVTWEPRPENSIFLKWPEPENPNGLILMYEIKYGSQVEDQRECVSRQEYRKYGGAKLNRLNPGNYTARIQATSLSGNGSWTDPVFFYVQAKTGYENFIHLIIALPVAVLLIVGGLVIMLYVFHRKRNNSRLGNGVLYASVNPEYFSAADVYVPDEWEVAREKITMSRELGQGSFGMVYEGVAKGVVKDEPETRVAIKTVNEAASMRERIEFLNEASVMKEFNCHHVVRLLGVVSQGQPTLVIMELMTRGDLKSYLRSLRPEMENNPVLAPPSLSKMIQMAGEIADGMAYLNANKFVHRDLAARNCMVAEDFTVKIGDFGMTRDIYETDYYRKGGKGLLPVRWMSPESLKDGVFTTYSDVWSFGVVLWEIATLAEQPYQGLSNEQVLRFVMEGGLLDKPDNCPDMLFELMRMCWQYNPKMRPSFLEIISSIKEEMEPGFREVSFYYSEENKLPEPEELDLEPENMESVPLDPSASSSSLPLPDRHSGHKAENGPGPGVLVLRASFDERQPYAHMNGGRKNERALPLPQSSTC

residual activity ([1]; compound 1.0 µM): 64%
residual activity ([1]; compound 5.0 µM): 38%
residual activity ([2]; compound 1.0 µM): 99%
residual activity ([2]; compound 5.0 µM): 99%
residual activity ([2]; compound 10.0 µM): 90%
residual activity ([3]; compound 1.0 µM): 87%
residual activity ([3]; compound 5.0 µM): 94%
residual activity ([3]; compound 10.0 µM): 84%
residual activity ([4]; compound 1.0 µM): 99%
residual activity ([4]; compound 5.0 µM): 49%
residual activity ([4]; compound 10.0 µM): 121%
residual activity ([5]; compound 1.0 µM): 52%
residual activity ([5]; compound 5.0 µM): 48%
residual activity ([6]; compound 1.0 µM): 114%
residual activity ([6]; compound 5.0 µM): 112%
residual activity ([6]; compound 10.0 µM): 117%
residual activity ([7]; compound 1.0 µM): 47%
residual activity ([7]; compound 5.0 µM): 15%
residual activity ([8]; compound 1.0 µM): 55%
residual activity ([8]; compound 5.0 µM): 27%
residual activity ([8]; compound 10.0 µM): 90%
residual activity ([9]; compound 1.0 µM): 110%
residual activity ([9]; compound 5.0 µM): 93%
residual activity ([9]; compound 10.0 µM): 113%
residual activity ([10]; compound 1.0 µM): 16%
residual activity ([10]; compound 5.0 µM): 4%
residual activity ([11]; compound 1.0 µM): 95%
residual activity ([11]; compound 5.0 µM): 87%
residual activity ([11]; compound 10.0 µM): 78%
residual activity ([12]; compound 1.0 µM): 101%
residual activity ([12]; compound 5.0 µM): 83%
residual activity ([13]; compound 1.0 µM): 98%
residual activity ([13]; compound 5.0 µM): 89%
residual activity ([14]; compound 1.0 µM): 72%
residual activity ([14]; compound 5.0 µM): 30%
residual activity ([14]; compound 10.0 µM): 87%
residual activity ([15]; compound 1.0 µM): 47%
residual activity ([15]; compound 5.0 µM): 41%
residual activity ([16]; compound 1.0 µM): 1%
residual activity ([16]; compound 5.0 µM): 0%
residual activity ([16]; compound 10.0 µM): 0%
residual activity ([17]; compound 1.0 µM): 102%
residual activity ([17]; compound 5.0 µM): 109%
residual activity ([17]; compound 10.0 µM): 99%
residual activity ([18]; compound 1.0 µM): 109%
residual activity ([18]; compound 5.0 µM): 119%
residual activity ([19]; compound 1.0 µM): 98%
residual activity ([19]; compound 5.0 µM): 49%
residual activity ([19]; compound 10.0 µM): 90%
residual activity ([20]; compound 1.0 µM): 56%
residual activity ([20]; compound 5.0 µM): 39%
residual activity ([20]; compound 10.0 µM): 101%
residual activity ([21]; compound 1.0 µM): 37%
residual activity ([21]; compound 5.0 µM): 33%
residual activity ([22]; compound 1.0 µM): 86%
residual activity ([22]; compound 5.0 µM): 45%
residual activity ([22]; compound 10.0 µM): 101%
residual activity ([23]; compound 1.0 µM): 44%
residual activity ([23]; compound 5.0 µM): 11%
residual activity ([23]; compound 10.0 µM): 39%
residual activity ([24]; compound 1.0 µM): 77%
residual activity ([24]; compound 5.0 µM): 48%
residual activity ([25]; compound 1.0 µM): 77%
residual activity ([25]; compound 5.0 µM): 12%
residual activity ([25]; compound 10.0 µM): 92%
residual activity ([26]; compound 1.0 µM): 118%
residual activity ([26]; compound 5.0 µM): 102%
residual activity ([27]; compound 1.0 µM): 102%
residual activity ([27]; compound 5.0 µM): 102%
residual activity ([27]; compound 10.0 µM): 104%
residual activity ([28]; compound 1.0 µM): 42%
residual activity ([28]; compound 5.0 µM): 17%
residual activity ([28]; compound 10.0 µM): 89%
residual activity ([29]; compound 1.0 µM): 59%
residual activity ([29]; compound 5.0 µM): 34%
residual activity ([29]; compound 10.0 µM): 60%
residual activity ([30]; compound 1.0 µM): 129%
residual activity ([30]; compound 5.0 µM): 154%
residual activity ([31]; compound 1.0 µM): 90%
residual activity ([31]; compound 5.0 µM): 12%
residual activity ([31]; compound 10.0 µM): 9%
residual activity ([32]; compound 1.0 µM): 86%
residual activity ([32]; compound 5.0 µM): 69%
residual activity ([32]; compound 10.0 µM): 26%
residual activity ([33]; compound 1.0 µM): 39%
residual activity ([33]; compound 5.0 µM): 14%
residual activity ([33]; compound 10.0 µM): 48%
residual activity ([34]; compound 1.0 µM): 79%
residual activity ([34]; compound 5.0 µM): 65%
residual activity ([34]; compound 10.0 µM): 101%
residual activity ([35]; compound 1.0 µM): 24%
residual activity ([35]; compound 5.0 µM): 15%
residual activity ([35]; compound 10.0 µM): 73%
residual activity ([36]; compound 1.0 µM): 68%
residual activity ([36]; compound 5.0 µM): 30%
residual activity ([36]; compound 10.0 µM): 106%
SMILES: Oc1ccc2ccccc2c1SSc1c(O)ccc2ccccc12

Reference: the kinase profiling compilation of Christmann-Franck et al. (2016)
